Where a name gives a salt, the structure may show the parent alone.
Columns and labels:
[1] = Hepatic intrinsic clearance following incubation in human liver microsomes; format: in vitro ADME; conditions: NADPH regenerating system, 0-30 min, 37 °C
Description: Hepatic Extraction Ratio from Hepatic Intrinsic Clearance Following Incubation in Human Liver Microsomes
The general procedure consists of an automated incubation system and LC-MS/MS analysis with human liver microsomes. Human liver microsomes are thawed rapidly in a waterbath at 37° C. and kept on ice until use. The human liver microsomes are diluted with 50 mM potassium phosphate buffer pH 7.4 to a protein concentration of 0.55 mg/mL. Test compounds and positive controls (Verapamil and Dextromethorphan, positive controls for CYP3A4 for CYP2D6 isoforms, respectively) are dissolved in methanol (or other appropriate solvent, if necessary) in order to obtain a 5 mM solution which is further diluted to the concentration of 50 μM. The stock solutions are prepared immediately before the test.
5 μL of 50 μM test compounds and controls are added to 445 μL-of the 0.55 mg/mL microsomes solution and the incubation mixture are pre-warmed at 37° C. for 5 minutes.
The incubation reactions are initiated by adding 50 μL of pre-warmed NADPH regenerating system to the incubation mixtures. 50 μL-aliquots will be taken from the incubation mixtures at: 0, 3, 6, 9, 15 and 30 minutes and the reactions are stopped by adding 100 μL of ACN containing Rolipram, used as generic Internal Standard (1S). Samples are then diluted with 120 μL of Milli-Q water and centrifuged at 3000 rpm for 10 minutes, prior the LC-MS/MS analysis.
The integrated peak areas for test compounds at the selected time points are divided by the respective peak areas of the IS and the percent of parent remaining is calculated by normalizing the peak area ratio of parent to IS at 0 min. Observed rate constant (kobs) for parent degradation is calculated by determining the slope of the line of the graph of the natural log of percentage parent remaining versus time of incubation. From the rate of depletion (min-1) and volume of the incubation (mL), clearance is estimated. This is scaled for the protein in the incubation relative to that in the intact liver, for all species (mL/min/g liver).
Values for the Human in vitro Clint are expressed as mL/min/g liver.
Assuming a liver weight of 25.7 g/kg and a liver blood flow of 20.7 mL/min/kg, the hepatic extraction ratio, Eh, can be derived from the Human in vitro Clint:
E.g. a Human in vitro Clint of 2.4 mL/min/g liver corresponds to a hepatic extraction ratio of 75%.
Some compounds of the present invention were tested according to example 121.

NK1 receptor = target: T1, NK1 receptor (Homo sapiens, UniProt P25103); assay: NK1 receptor mediated intracellular [Ca2+] mobilization in U251 MG cells using FLIPR; format: cell-based; conditions: antagonist potency against Substance P (EC80), normalized to 100 nM Aprepitant, read-out: U251MG (FLIPR pIC50) (converted)
T1 construct: Measurement of NK1 Receptor Mediated Intracellular [Ca^2+]; Mobilization in U251 MG Cells Using FLIPR; endogenous in cells; host or cells: U251 MG cells
Description: Measurement of NK1 Receptor Mediated Intracellular [Ca^2+] Mobilization in U251 MG Cells Using FLIPR
U251 MG cells were seeded into black walled clear-bottom 384-well plates (Greiner Bio-One GmbH, Frickenhausen, Germany) at a density of 15,000 cells/well in 50 μl culture medium and cultured overnight in a 37° C. 5% CO2 incubator. The cells were then loaded with the calcium sensitive dye Fluo-4 (Invitrogen) at 1 μM in buffer, containing 0.04%
Pluronic F-127 (Sigma-Aldrich), and 2.5 mM probenecid (Sigma-Aldrich) for 60 min in a humidified atmosphere of 5% CO2. Thereafter, cells were washed three times in washing buffer containing 20 mM HEPES and 2.5 mM probenecid pH 7.3. Serial dilutions of test compounds in assay buffer containing 2% dimethyl sulfoxide (final concentration in the cell plate is 0.5% DMSO) and/or agonist were then automatically pipetted into each test well, and the peak fluorescence intensity was recorded (lex, 488 nm; lem, 540 nm) by the FLIPR instrument (Molecular Devices) for approximately 5 min. To measure antagonist potency, cell plates were first incubated with the test compound and intracellular fluorescence recorded for 5 minutes to check a potential agonist effect of the test compound. Cell plates were quickly removed from the FLIPR instrument and incubated for additional 10 minutes at 37° C. before being moved back to the FLIPR instrument for Substance P (EC80) addition. The response was measured as the peak relative fluorescence change after agonist addition.
The IC50 value is defined as the molar concentration of a test compound that produces a response midway between the fitted top and the fitted bottom. pIC50=−log IC50
Formula is listed as follows: Fit(% Effect calculated)=(A+((B−A)/(1+((C/X)^D)))) • A: bottom value • B: top value • C: […] • D: Hill slope coefficient
Ref: Sullivan E, Tucker E M, and Dale I L. Measurement of [Ca^2+] using the Fluorometric Imaging Plate Reader (FLIPR). Methods Mol Biol 114:125-133, 1999.
Compounds of the present invention were tested according to example 120.

T1 sequence (P25103 whole entry): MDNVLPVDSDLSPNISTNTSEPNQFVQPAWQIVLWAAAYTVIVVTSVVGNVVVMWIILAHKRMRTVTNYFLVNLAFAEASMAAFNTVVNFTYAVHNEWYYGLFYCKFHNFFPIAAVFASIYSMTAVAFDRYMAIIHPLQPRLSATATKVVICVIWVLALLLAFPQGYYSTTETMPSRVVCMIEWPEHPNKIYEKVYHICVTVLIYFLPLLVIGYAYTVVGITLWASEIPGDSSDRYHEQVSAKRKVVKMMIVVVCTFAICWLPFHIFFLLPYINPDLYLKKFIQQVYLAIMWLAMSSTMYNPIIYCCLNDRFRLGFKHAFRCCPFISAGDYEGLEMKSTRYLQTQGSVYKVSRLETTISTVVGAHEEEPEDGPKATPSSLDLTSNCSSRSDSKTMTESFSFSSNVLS

| Human in vitro Clint (mL/min/g liver) [1] | IC50 (NK1 receptor) | SMILES |
| --- | --- | --- |
| 5.4 mL/min/g liver | 0.166 nM | Cc1ccccc1[C@H]1[C@@H]2CC(CCO)(CCO)C(=O)N2CCN1C(=O)N(C)[C@@H](C)c1cc(C(F)(F)F)cc(C(F)(F)F)c1 [Compound 99, (1S,8aS)-N-((S)-1-(3,5-bis(trifluoromethyl)phenyl)ethyl)-7,7-bis(2-hydroxyethyl)-N-methyl-6-oxo-1-o-tolylhexahydropyrrolo[1,2-a]pyrazine-2(1H)-carboxamide] |
| 6.4 mL/min/g liver | 0.398 nM | Cc1ccccc1C1C2CC(CN3CCOCC3)C(=O)N2CCN1C(=O)N(C)Cc1cc(C(F)(F)F)cc(C(F)(F)F)c1 (single isomer, unassigned) [Compound 29, N-{[3,5-bis(trifluoromethyl)phenyl]methyl}-N-methyl-1-(2-methylphenyl)-7-(morpholin-4-ylmethyl)-6-oxo-octahydropyrrolo[1,2-a]piperazine-2-carboxamide] |
| 15 mL/min/g liver | 0.126 nM | Cc1ccccc1[C@H]1[C@@H]2CC(CCO)(CCO)C(=O)N2CCN1C(=O)N(C)[C@H](C)c1cc(Cl)cc(C(F)(F)F)c1 [Compound 89, (1S,8aS)-N-((R)-1-(3-chloro-5-(trifluoromethyl)phenyl)ethyl)-7,7-bis(2-hydroxyethyl)-N-methyl-6-oxo-1-o-tolylhexahydropyrrolo[1,2-a]pyrazine-2(1H)-carboxamide] |
| 8.5 mL/min/g liver | 0.0631 nM | Cc1cc([C@H](C)N(C)C(=O)N2CCN3C(=O)C(CCO)(CCO)C[C@H]3[C@@H]2c2ccccc2C)cc(C(F)(F)F)c1 [Compound 84, (1S,8aS)-7,7-bis(2-hydroxyethyl)-N-methyl-N-((S)-1-(3-methyl-5-(trifluoromethyl)phenyl)ethyl)-6-oxo-1-o-tolylhexahydropyrrolo[1,2-a]pyrazine-2(1H)-carboxamide] |
| 3.1 mL/min/g liver | 0.1 nM | Cc1ccccc1[C@H]1[C@@H]2CC(CO)(CO)C(=O)N2CCN1C(=O)N(C)[C@H](C)c1cc(C(F)(F)F)cc(C(F)(F)F)c1 [Compound 104, (1S,8aS)-N-((R)-1-(3,5-bis(trifluoromethyl)phenyl)ethyl)-7,7-bis(hydroxymethyl)-N-methyl-6-oxo-1-o-tolylhexahydropyrrolo[1,2-a]pyrazine-2(1H)-carboxamide] |
| 3.7 mL/min/g liver | 0.525 nM | Cc1ccccc1C1C2CC(CCO)(CCO)C(=O)N2CCN1C(=O)N(C)Cc1cc(C(F)(F)F)cc(C(F)(F)F)c1 (single isomer, unassigned) [Compound 43, N-{[3,5-bis(trifluoromethyl)phenyl]methyl}-7,7-bis(2-hydroxyethyl)-N-methyl-1-(2-methylphenyl)-6-oxo-octahydropyrrolo[1,2-a]piperazine-2-carboxamide] |
| 11 mL/min/g liver | 0.324 nM | Cc1ccccc1C1C2CCCN2CCN1C(=O)N(C)[C@H](C)c1cc(C(F)(F)F)cc(C(F)(F)F)c1 (single isomer, unassigned) [Compound 63] |
| 6.9 mL/min/g liver | 0.0251 nM | Cc1cc([C@@H](C)N(C)C(=O)N2CCN3C(=O)C4(CCOCC4)C[C@H]3[C@@H]2c2ccccc2C)cc(C(F)(F)F)c1 [Compound 101] |
| 1.9 mL/min/g liver | 0.166 nM | Cc1ccccc1C1C2CC3(CCN(C)CC3)C(=O)N2CCN1C(=O)N(C)Cc1cc(C(F)(F)F)cc(C(F)(F)F)c1 (racemic) [Compound 45, N-{[3,5-bis(trifluoromethyl)phenyl]methyl}-N,1-dimethyl-4′-(2-methylphenyl)-1′-oxo-hexahydro-1′H-spiro[piperidine-4,2′-pyrrolo[1,2-a]piperazine]-5′-carboxamide] |
| 13 mL/min/g liver | 0.1 nM | CCc1cc([C@@H](C)N(C)C(=O)N2CCN3C(=O)CC[C@H]3[C@@H]2c2ccccc2C)cc(C(F)(F)F)c1 [Compound 109, (1S,8aS)-N-((R)-1-(3-ethyl-5-(trifluoromethyl)phenyl)ethyl)-N-methyl-6-oxo-1-o-tolylhexahydropyrrolo[1,2-a]pyrazine-2(1H)-carboxamide] |
| – | 28.2 nM | Cc1ccccc1C1C2CC(CN3CCOCC3)C(=O)N2CCN1C(=O)N(C)[C@H](C)c1cc(C(F)(F)F)cc(C(F)(F)F)c1 (single isomer, unassigned) [Compound 71] |
| – | 77.6 nM | Cc1cc(C)cc(CN(C)C(=O)N2CCN3C(=O)CCC3C2c2ccccc2C)c1 (single isomer, unassigned) [Compound 2, N-[(3,5-dimethylphenyl)methyl]-N-methyl-1-(2-methylphenyl)-6-oxo-octahydropyrrolo[1,2-a]piperazine-2-carboxamide] |
| – | 0.12 nM | Cc1ccccc1C1C2CC(CN3CCOCC3)C(=O)N2CCN1C(=O)N(C)Cc1cc(C(F)(F)F)cc(C(F)(F)F)c1 (single isomer, unassigned) [Compound 51] |
| – | 0.1 nM | COC(=O)C1(C)CC2C(c3ccccc3C)N(C(=O)N(C)Cc3cc(C(F)(F)F)cc(C(F)(F)F)c3)CCN2C1=O (single isomer, unassigned) [Compound 15, Methyl 2-({[3,5-bis(trifluoromethyl)phenyl]methyl}(methyl)carbamoyl)-7-methyl-1-(2-methylphenyl)-6-oxo-octahydropyrrolo{1,2-a}piperazine-7-carboxylate] |
| – | 0.12 nM | Cc1ccccc1[C@H]1[C@@H]2CC(CCO)(CCO)C(=O)N2CCN1C(=O)N(C)C(CCO)c1cc(C(F)(F)F)cc(C(F)(F)F)c1 (single isomer, unassigned) [Compound 81] |
| – | 0.912 nM | Cc1ccccc1C1C2CC(CO)CN2CCN1C(=O)N(C)Cc1cc(C(F)(F)F)cc(C(F)(F)F)c1 (single isomer, unassigned) [Compound 28, N-{[3,5-bis(trifluoromethyl)phenyl]methyl}-7-(hydroxymethyl)-N-methyl-1-(2-methylphenyl)-octahydropyrrolo[1,2-a]piperazine-2-carboxamide; methanesulfonic acid salt] |
| – | 28.2 nM | Cc1ccccc1C1C2CCC(=O)N2CCN1C(=O)N(C)Cc1cc(C(F)(F)F)cc(C(F)(F)F)c1 (single isomer, unassigned) [Compound 17, N-{[3,5-bis(trifluoromethyl)phenyl]methyl}-N-methyl-1-(2-methylphenyl)-6-oxo-octahydropyrrolo[1,2-a]piperazine-2-carboxamide] |
| – | 12.9 nM | Cc1ccccc1[C@@H]1[C@H]2CCC(=O)N2CCN1C(=O)N(C)[C@H](C)c1cc(C(F)(F)F)cc(C(F)(F)F)c1 (single isomer, unassigned) [Compound 10] |
| – | 3.72 nM | Cc1ccccc1C1C2CC(CO)C(=O)N2CCN1C(=O)N(C)Cc1cc(C(F)(F)F)cc(C(F)(F)F)c1 (single isomer, unassigned) [Compound 19, N-{[3,5-bis(trifluoromethyl)phenyl]methyl}-7-(hydroxymethyl)-N-methyl-1-(2-methylphenyl)-6-oxo-octahydropyrrolo[1,2-a]piperazine-2-carboxamide] |
